In ChEMBL document CHEMBL5291721, “A preclinical secondary pharmacology resource illuminates target-adverse drug reaction associations of marketed drugs” (Nat Commun, 2023):

Columns and labels:
[1] = target: Voltage-dependent L-type calcium channel subunit alpha-1C (Rattus norvegicus, UniProt P22002); format: functional
Mu-type opioid receptor = Mu-type opioid receptor (Homo sapiens, UniProt P35372)
Progesterone receptor = target: T1, Progesterone receptor (Homo sapiens, UniProt P06401); format: functional
T1 sequence (P06401 whole entry): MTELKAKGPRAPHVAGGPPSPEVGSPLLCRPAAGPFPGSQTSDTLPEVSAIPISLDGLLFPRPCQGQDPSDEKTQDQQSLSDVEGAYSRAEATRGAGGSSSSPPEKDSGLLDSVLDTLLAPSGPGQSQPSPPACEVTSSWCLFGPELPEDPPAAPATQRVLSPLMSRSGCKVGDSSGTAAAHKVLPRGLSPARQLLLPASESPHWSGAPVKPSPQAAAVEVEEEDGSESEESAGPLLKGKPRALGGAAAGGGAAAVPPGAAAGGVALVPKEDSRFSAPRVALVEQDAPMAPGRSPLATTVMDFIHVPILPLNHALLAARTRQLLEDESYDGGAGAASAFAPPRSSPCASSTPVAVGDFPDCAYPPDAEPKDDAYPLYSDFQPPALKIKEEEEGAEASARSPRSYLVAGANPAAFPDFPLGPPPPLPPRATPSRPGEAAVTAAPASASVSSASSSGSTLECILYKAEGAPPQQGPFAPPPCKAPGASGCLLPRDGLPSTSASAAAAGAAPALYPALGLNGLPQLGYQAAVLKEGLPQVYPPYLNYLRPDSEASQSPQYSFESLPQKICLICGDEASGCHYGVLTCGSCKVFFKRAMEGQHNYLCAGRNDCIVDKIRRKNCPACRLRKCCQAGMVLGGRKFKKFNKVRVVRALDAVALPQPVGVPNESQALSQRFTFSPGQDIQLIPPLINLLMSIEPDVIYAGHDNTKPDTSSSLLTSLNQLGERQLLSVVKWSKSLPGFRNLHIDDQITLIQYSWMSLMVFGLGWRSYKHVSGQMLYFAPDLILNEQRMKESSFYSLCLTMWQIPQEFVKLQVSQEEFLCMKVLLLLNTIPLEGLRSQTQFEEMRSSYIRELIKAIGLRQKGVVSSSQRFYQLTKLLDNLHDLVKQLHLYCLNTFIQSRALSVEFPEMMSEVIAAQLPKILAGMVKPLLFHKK

[2] = target: Prostaglandin G/H synthase 1 (Homo sapiens, UniProt P23219); format: functional
[3] = target: Sodium-dependent noradrenaline transporter (Homo sapiens, UniProt P23975)
Thromboxane A2 receptor = target: T2, Thromboxane A2 receptor (Homo sapiens, UniProt P21731); format: functional, cell-based
T2 sequence (P21731 whole entry): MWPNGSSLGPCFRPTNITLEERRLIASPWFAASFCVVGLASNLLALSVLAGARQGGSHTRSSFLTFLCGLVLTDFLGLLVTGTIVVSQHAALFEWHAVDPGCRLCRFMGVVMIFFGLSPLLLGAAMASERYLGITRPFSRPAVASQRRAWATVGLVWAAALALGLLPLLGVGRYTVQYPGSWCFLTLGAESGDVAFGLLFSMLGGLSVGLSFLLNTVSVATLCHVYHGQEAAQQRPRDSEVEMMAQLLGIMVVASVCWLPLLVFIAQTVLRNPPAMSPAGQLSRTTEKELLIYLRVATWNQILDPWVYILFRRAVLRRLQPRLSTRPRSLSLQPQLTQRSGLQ

[4] = target: Muscarinic acetylcholine receptor M3 (Homo sapiens, UniProt P20309)
Histamine H1 receptor = Histamine H1 receptor (Homo sapiens, UniProt P35367)
Histamine H3 receptor = Histamine H3 receptor (Homo sapiens, UniProt Q9Y5N1)
Estrogen receptor = target: T3, Estrogen receptor (Homo sapiens, UniProt P03372)
T3 sequence (P03372 whole entry): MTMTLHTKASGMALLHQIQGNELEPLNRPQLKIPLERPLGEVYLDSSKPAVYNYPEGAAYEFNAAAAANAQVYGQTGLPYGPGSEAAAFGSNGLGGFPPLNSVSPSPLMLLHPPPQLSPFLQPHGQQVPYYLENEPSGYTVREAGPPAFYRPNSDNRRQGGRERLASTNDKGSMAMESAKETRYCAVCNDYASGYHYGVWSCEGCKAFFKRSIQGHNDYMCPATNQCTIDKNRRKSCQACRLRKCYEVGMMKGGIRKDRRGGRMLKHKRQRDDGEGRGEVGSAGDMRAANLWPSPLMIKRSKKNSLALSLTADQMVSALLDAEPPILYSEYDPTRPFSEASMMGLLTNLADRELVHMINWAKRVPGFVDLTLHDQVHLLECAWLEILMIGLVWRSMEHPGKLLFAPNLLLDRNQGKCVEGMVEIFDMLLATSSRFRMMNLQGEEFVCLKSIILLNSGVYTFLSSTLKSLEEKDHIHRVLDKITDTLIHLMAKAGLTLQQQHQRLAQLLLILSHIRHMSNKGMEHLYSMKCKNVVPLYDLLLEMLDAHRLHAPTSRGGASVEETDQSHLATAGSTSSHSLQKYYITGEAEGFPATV

[5] = target: T4, Alpha-1A adrenergic receptor (Homo sapiens, UniProt P35348); format: functional, cell-based
T4 sequence (P35348 whole entry): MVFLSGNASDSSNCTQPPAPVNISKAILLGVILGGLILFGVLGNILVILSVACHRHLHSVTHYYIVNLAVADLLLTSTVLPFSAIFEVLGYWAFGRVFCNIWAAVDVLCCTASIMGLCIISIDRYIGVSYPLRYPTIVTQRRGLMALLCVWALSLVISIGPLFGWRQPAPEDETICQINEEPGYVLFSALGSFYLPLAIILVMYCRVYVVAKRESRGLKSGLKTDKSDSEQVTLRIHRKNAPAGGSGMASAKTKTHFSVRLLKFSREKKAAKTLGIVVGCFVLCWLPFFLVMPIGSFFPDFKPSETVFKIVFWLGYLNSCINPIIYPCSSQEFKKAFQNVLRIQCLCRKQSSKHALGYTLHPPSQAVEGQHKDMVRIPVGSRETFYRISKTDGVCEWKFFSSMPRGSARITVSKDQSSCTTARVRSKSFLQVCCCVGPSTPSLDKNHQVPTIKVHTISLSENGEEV

Cannabinoid receptor 1 = Cannabinoid receptor 1 (Homo sapiens, UniProt P21554); format: functional, cell-based
Also: assay procedure not described here.

Sequence of Histamine H1 receptor (P35367 whole entry): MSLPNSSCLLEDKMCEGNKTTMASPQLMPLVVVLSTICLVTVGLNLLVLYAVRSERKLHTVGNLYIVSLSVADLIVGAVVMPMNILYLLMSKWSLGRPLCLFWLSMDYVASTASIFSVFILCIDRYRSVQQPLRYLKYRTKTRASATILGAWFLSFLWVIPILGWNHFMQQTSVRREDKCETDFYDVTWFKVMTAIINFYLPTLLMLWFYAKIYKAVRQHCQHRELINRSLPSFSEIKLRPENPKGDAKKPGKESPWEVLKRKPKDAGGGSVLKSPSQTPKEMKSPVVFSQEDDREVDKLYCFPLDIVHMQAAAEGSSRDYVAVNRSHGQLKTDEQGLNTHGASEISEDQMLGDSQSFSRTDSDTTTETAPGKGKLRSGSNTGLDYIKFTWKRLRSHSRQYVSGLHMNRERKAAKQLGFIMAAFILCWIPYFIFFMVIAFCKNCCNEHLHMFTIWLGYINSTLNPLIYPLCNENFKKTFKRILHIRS
Sequence of Mu-type opioid receptor (P35372 whole entry): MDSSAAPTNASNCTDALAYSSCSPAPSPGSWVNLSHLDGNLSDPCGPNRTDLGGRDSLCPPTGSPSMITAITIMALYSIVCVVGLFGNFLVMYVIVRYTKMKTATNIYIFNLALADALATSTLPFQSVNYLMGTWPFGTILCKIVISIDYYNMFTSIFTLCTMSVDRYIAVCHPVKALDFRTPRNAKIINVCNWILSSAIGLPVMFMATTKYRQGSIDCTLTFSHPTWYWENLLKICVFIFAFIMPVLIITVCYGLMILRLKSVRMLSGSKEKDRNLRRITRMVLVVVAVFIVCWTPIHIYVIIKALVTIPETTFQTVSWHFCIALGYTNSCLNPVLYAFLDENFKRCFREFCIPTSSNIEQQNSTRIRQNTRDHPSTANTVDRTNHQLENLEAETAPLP
Sequence of Cannabinoid receptor 1 (P21554 whole entry): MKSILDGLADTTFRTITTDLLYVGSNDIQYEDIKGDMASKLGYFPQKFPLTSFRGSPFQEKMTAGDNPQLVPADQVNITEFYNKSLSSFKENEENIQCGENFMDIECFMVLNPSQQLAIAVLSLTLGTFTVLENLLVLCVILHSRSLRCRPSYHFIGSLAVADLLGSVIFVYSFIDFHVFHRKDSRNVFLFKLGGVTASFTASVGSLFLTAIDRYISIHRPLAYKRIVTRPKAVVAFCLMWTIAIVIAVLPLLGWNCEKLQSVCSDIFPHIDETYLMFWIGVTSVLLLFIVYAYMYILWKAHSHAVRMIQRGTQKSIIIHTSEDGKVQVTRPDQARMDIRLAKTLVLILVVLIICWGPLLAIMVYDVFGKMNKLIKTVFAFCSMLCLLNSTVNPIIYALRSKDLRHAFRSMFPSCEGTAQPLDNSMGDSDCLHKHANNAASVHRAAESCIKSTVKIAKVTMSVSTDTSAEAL
Sequence of Histamine H3 receptor (Q9Y5N1 whole entry): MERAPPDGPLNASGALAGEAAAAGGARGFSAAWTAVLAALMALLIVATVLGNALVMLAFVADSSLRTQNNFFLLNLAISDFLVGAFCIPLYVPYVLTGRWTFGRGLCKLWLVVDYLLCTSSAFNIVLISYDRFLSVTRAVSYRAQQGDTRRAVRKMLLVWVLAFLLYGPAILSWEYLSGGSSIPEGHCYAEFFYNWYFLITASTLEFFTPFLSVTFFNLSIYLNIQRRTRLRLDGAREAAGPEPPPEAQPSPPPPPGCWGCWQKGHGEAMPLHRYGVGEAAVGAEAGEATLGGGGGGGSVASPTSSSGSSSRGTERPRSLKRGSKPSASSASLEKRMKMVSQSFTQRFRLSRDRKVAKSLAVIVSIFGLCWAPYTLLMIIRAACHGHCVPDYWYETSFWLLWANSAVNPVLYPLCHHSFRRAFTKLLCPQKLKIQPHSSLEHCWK
Sequence of Voltage-dependent L-type calcium channel subunit alpha-1C (P22002 whole entry): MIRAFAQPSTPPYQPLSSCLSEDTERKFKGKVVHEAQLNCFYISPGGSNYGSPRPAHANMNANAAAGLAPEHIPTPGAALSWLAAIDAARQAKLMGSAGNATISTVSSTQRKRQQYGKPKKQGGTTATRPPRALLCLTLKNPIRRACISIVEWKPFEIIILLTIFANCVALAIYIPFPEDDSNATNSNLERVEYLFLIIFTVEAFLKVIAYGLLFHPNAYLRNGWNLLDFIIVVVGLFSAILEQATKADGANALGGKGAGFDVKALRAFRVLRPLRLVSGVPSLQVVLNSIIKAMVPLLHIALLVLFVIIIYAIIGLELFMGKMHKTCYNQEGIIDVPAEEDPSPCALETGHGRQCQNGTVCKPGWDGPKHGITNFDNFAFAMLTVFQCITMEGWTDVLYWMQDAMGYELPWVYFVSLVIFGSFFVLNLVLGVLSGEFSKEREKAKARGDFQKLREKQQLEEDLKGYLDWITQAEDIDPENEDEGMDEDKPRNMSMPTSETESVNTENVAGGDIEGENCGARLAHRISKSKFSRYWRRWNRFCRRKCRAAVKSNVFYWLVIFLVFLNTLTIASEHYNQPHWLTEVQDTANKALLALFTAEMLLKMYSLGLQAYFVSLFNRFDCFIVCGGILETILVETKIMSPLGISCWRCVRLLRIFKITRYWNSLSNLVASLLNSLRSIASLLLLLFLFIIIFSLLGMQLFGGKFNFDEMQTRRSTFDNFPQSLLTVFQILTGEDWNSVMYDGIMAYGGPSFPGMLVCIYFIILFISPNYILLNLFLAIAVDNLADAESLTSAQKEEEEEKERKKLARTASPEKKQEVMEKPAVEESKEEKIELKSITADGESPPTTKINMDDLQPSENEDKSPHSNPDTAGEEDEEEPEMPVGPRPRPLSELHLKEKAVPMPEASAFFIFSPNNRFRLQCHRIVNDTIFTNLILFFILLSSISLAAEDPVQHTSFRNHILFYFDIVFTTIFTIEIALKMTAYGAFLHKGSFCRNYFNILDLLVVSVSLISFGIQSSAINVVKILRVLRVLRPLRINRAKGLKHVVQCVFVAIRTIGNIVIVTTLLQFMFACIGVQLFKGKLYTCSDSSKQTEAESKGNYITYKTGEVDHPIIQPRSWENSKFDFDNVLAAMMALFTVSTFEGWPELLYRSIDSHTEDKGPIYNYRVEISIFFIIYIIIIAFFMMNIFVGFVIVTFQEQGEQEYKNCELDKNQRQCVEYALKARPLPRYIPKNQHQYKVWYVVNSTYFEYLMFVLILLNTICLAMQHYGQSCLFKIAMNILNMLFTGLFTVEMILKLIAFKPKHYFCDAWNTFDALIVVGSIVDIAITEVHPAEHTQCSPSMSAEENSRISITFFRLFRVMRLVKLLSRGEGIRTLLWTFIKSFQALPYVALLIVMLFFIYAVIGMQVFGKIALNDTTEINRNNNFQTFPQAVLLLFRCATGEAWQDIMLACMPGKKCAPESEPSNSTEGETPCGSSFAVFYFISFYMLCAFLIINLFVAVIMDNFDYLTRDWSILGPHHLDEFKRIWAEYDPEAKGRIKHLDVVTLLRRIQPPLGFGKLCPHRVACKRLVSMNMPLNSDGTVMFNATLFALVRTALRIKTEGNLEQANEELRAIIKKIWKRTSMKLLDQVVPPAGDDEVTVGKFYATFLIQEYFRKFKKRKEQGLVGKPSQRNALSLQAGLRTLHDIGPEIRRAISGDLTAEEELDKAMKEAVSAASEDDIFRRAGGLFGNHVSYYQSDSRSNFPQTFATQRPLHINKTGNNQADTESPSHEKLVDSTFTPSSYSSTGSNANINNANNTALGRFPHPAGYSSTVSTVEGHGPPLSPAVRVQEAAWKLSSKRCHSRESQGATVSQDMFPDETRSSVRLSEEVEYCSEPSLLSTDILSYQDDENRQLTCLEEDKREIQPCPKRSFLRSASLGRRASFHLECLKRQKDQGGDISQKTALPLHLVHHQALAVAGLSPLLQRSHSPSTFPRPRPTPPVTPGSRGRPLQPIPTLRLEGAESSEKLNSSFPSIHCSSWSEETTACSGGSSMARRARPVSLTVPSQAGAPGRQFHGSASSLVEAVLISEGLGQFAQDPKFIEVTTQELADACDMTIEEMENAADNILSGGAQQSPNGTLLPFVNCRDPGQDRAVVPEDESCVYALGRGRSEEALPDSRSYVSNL
Sequence of Muscarinic acetylcholine receptor M3 (P20309 whole entry): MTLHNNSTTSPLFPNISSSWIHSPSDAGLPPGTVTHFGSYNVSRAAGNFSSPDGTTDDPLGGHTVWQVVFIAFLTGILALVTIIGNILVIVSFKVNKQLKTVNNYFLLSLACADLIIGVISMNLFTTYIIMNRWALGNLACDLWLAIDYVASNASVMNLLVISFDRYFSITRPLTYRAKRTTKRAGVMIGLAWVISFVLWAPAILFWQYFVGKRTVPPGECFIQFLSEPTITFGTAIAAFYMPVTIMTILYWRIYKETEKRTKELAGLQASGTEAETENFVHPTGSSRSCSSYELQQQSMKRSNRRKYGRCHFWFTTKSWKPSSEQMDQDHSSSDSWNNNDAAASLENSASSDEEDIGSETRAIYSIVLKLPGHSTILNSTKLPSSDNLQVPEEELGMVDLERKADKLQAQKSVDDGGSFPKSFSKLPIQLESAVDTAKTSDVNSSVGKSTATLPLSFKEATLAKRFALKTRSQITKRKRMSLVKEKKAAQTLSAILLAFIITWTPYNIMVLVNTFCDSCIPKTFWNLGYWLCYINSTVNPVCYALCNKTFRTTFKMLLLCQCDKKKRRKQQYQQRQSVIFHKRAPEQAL

Compound	AC50 [1] [µM]	AC50 (Mu-type opioid receptor) [µM]	AC50 (Progesterone receptor) [µM]	AC50 [2] [µM]	AC50 [3] [µM]	AC50 (Thromboxane A2 receptor) [µM]	AC50 [4] [µM]	AC50 (Histamine H1 receptor) [µM]	AC50 (Histamine H3 receptor) [µM]	AC50 (Estrogen receptor) [µM]	AC50 [5] [µM]	AC50 (Cannabinoid receptor 1) [µM]
CN(C)/N=N/c1[nH]cnc1C(N)=O [DACARBAZINE]	> 10	> 30	> 10	–	–	–	–	–	–	–	–	–
CCOC(=O)[C@H](CCc1ccccc1)N[C@@H](C)C(=O)N1[C@H](C(=O)O)C[C@H]2CCCC[C@@H]21 [TRANDOLAPRIL]	–	–	–	> 30	> 30	> 30	–	–	–	–	–	–
CN1C(=O)CCS(=O)(=O)C1c1ccc(Cl)cc1 (configuration not stated) [CHLORMEZANONE]	> 10	> 30	> 10	–	–	–	> 30	> 30	–	–	–	–
O=P1(NCCCl)OCCCN1CCCl (configuration not stated) [IFOSFAMIDE]	> 30	–	> 30	–	–	–	–	–	> 30	–	–	–
COc1cc(NC(C)CCCN)c2ncccc2c1 (configuration not stated) [PRIMAQUINE]	–	–	–	3.95	–	> 30	–	–	–	> 30	–	–
Nc1ccn([C@H]2CC[C@@H](CO)O2)c(=O)n1 [ZALCITABINE]	> 10	> 30	–	–	–	–	> 30	> 10	–	–	> 30	> 30
CCCCN1C[C@H](O)[C@@H](O)[C@H](O)[C@H]1CO	> 30	–	> 30	–	–	–	> 30	> 30	> 30	–	> 30	–
CN(C)CCn1nnnc1SCC1=C(C(=O)O)N2C(=O)[C@@H](NC(=O)Cc3csc(N)n3)[C@H]2SC1 [CEFOTIAM]	–	–	–	> 30	> 30	> 30	–	–	–	–	–	–
CC(=O)NCCCS(=O)(=O)O [ACAMPROSATE]	–	–	> 30	–	–	–	> 30	> 30	> 30	–	> 30	> 30
COc1cc2nc(N(C)CCCNC(=O)C3CCCO3)nc(N)c2cc1OC (configuration not stated) [ALFUZOSIN]	> 30	–	> 30	–	–	–	> 30	> 30	> 30	–	–	> 30
Clc1ccc2nsnc2c1NC1=NCCN1 [TIZANIDINE]	> 10	> 30	–	–	–	–	> 10	> 10	> 10	–	0.0098	–
CN(C)CC(c1ccc(O)cc1)C1(O)CCCCC1 (configuration not stated) [DESVENLAFAXINE]	–	–	–	> 30	–	> 30	–	–	–	> 30	–	–
CCCSc1ccc2nc(NC(=O)OC)[nH]c2c1 [ALBENDAZOLE]	> 10	> 30	> 10	–	–	–	–	–	–	–	–	–
CCC(C)n1ncn(-c2ccc(N3CCN(c4ccc(OCC5COC(Cn6cncn6)(c6ccc(Cl)cc6Cl)O5)cc4)CC3)cc2)c1=O (configuration not stated) [ITRACONAZOLE]	> 30	> 10	> 30	–	–	–	–	–	> 30	–	> 30	> 30
